In patent publication US8916593B2, “Alkoxy-substituted 2-aminopyridines as ALK inhibitors” (Pfizer Inc., priority 2010, dated 2014):

What was measured:
[1] = target: T1, human recombinant wild-type ALK kinase domain (amino acids 1093-1411) (Homo sapiens, UniProt Q9UM73); assay: ALK enzyme assay 2 (microfluidic mobility shift assay); type: biochemical;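 further: kinase reaction run 1 h at room temperature, conversion quantified by electrophoretic separation of fluorescent peptide substrate from phosphorylated product, about 15-20% turnover without inhibitor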
T1 construct: ALK kinase domain (amino acids 1093-1411); made in house
Procedure: The reactions were incubated for 1 h at room temperature, stopped by the addition of 0.1 M EDTA, pH 8, and the extent of reactions (˜15-20% conversion with no inhibitor) was determined after electrophoretic separation of the fluorescently labeled peptide substrate and phosphorylated product on an LabChip EZ Reader II (Caliper Life Sciences, Hopkinton, Mass.).

[2] = target: EML4-ALK wt v1 in NIH-3T3 cells (Homo sapiens, UniProt Q9UM73)
EML4-ALK wt v1 in NIH-3T3 cells, sequence (Q9UM73 with tags, fused parts or gaps): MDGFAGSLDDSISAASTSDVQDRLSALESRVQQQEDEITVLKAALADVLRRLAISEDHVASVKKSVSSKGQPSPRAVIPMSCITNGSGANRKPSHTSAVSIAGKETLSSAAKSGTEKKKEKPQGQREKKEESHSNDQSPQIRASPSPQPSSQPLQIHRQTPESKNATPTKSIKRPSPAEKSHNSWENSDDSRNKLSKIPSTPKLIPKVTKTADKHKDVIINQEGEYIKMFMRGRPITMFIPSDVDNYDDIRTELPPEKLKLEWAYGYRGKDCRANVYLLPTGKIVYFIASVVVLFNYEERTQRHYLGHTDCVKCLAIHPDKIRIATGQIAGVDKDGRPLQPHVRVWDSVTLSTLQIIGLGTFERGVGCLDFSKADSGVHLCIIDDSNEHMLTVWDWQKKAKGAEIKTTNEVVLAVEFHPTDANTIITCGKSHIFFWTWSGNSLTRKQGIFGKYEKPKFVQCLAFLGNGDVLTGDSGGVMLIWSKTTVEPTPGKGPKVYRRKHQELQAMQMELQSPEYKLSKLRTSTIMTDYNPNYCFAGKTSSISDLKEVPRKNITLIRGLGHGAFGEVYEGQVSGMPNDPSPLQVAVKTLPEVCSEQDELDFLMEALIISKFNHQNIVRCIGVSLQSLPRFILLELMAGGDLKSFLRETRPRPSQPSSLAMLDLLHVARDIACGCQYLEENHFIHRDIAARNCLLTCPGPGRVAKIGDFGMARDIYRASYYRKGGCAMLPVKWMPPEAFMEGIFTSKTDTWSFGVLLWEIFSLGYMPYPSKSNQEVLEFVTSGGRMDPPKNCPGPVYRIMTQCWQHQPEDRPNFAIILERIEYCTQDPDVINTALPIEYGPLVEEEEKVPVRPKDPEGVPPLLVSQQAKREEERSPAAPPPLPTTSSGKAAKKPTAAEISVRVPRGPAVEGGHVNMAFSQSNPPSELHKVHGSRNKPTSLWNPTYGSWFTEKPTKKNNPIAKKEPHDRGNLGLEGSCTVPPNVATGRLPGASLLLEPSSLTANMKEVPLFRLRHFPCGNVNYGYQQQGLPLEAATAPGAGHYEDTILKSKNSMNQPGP

T1 sequence (Q9UM73 1093-1411): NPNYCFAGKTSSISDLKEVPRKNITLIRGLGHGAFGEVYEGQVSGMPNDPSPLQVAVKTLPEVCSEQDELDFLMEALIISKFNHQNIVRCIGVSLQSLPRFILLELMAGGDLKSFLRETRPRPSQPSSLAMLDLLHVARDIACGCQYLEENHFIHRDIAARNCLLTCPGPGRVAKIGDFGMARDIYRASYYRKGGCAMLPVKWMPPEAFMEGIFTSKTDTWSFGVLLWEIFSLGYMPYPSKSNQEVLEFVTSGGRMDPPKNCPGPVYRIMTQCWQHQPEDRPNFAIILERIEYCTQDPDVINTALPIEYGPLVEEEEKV

Row | Structure (SMILES) | Ki [1] [nM] | IC50 [2] [nM]
1 | C[C@@H](Oc1cc(-c2cnn(C3CCNCC3)c2)cnc1N)c1cc(F)ccc1-n1nccn1 [Example 80, 3-{(1R)-1-[5-fluoro-2-(2H-1,2,3-triazol-2-yl)phenyl]ethoxy}-5-[1-(piperidin-4-yl)-1H-pyrazol-4-yl]pyridin-2-amine] | < 0.2 | 6.58
2 | C[C@@H](Oc1cc(-c2cnn(C3CCN(C(=O)CN(C)C)CC3)c2)cnc1N)c1cc(F)ccc1-n1nccn1 [Example 128, 1-{4-[4-(6-amino-5-{(1R)-1-[5-fluoro-2-(2H-1,2,3-triazol-2-yl)phenyl]ethoxy}pyridin-3-yl)-1H-pyrazol-1-yl]piperidin-1-yl}-2-(dimethylamino)ethanone] | < 0.2 | 9.8
3 | C[C@@H](Oc1cc(-c2ccnc(N3CCN(C)CC3)c2)cnc1N)c1cc(F)ccc1-n1nccn1 [Example 73, 5-{(1R)-1-[5-fluoro-2-(2H-1,2,3-triazol-2-yl)phenyl]ethoxy}-2′-(4-methylpiperazin-1-yl)-3,4′-bipyridin-6-amine] | < 0.2 | 6.73
4 | C[C@@H](Oc1cc(-c2ccnc(N3CCOCC3)c2F)cnc1N)c1cc(F)ccc1-n1nccn1 [Example 131, 3′-fluoro-5-{(1R)-1-[5-fluoro-2-(2H-1,2,3-triazol-2-yl)phenyl]ethoxy}-2′-(morpholin-4-yl)-3,4′-bipyridin-6-amine] | 0.638 | 17.6
5 | Cc1n[nH]cc1-c1cnc(N)c(OC(C)c2cc(F)ccc2N2CCCC2=O)n1 (stereo not drawn) [Example 65, 1-[2-(1-{[3-amino-6-(3-methyl-1H-pyrazol-4-yl)pyrazin-2-yl]oxy}ethyl)-4-fluorophenyl]pyrroli-din-2-one] | 5.1 | 193
6 | C[C@@H](Oc1cc(-c2cn([C@@H]3C[C@H]4CC[C@@H](C3)N4)nc2C#N)cnc1N)c1cc(F)ccc1-n1nccn1 [Example 140, 4-(6-amino-5-{(1R)-1-[5-fluoro-2-(2H-1,2,3-triazol-2-yl)phenyl]ethoxy}pyridin-3-yl)-1-[(3-exo)-8-azabicyclo[3.2.1]oct-3-yl]-1H-pyrazole-3-carbonitrile] | < 0.2 | 15.9
7 | COc1ccc(-c2cnc(N)c(O[C@H](C)c3cc(F)ccc3-n3nccn3)c2)cc1S(N)(=O)=O [Example 144, 5-(6-amino-5-{(1R)-1-[5-fluoro-2-(2H-1,2,3-triazol-2-yl)phenyl]ethoxy}pyridin-3-yl)-2-methoxybenzenesulfonamide] | < 0.2 | 2.45
8 | CC(O)Cn1cc(-c2cnc(N)c(O[C@H](C)c3cc(F)ccc3-n3nccn3)c2)cn1 (stereo partly drawn) [Example 77, 1-[4-(6-amino-5-{(1R)-1-[5-fluoro-2-(2H-1,2,3-triazol-2-yl)phenyl]ethoxy}pyridin-3-yl)-1H-pyrazol-1-yl]propan-2-ol] | 0.2 | 15.3
9 | Cc1n[nH]cc1-c1cnc(N)c(O[C@H](C)c2cc(F)ccc2-n2nccn2)n1 [Example 67, 3-{(1R)-1-[5-fluoro-2-(2H-1,2,3-triazol-2-yl)phenyl]ethoxy}-5-(3-methyl-1H-pyrazol-4-yl)pyrazin-2-amine] | 0.56 | 40.9
10 | C[C@@H](Oc1cc(-c2ccnc(N3CCN(C)CC3)c2F)cnc1N)c1cc(F)ccc1-n1nccn1 [Example 132, 3′-fluoro-5-{(1R)-1-[5-fluoro-2-(2H-1,2,3-triazol-2-yl)phenyl]ethoxy}-2,-(4-methylpiperazin-1-yl)-3,4′-bipyridin-6-amine] | < 0.2 | 5.67
11 | CNS(=O)(=O)c1cc(-c2cnc(N)c(O[C@H](C)c3cc(F)ccc3-n3nccn3)c2)ccc1OC [Example 142, 5-(6-amino-5-{(1R)-1-[5-fluoro-2-(2H-1,2,3-triazol-2-yl)phenyl]ethoxy}pyridin-3-yl)-2-methoxy-N-methylbenzenesulfonamide] | < 0.2 | 3.75
12 | CCc1nc(CO)sc1-c1cnc(N)c(O[C@H](C)c2cc(F)ccc2-n2nccn2)c1 [Example 108, [5-(6-amino-5-{(1R)-1-[5-fluoro-2-(2H-1,2,3-triazol-2-yl)phenyl]ethoxy}pyridin-3-yl)-4-ethyl-1,3-thiazol-2-yl]methanol] | < 0.2 | 9.38
13 | C[C@@H](Oc1cc(-c2cnn([C@@H]3C[C@H]4CC[C@@H](C3)N4)c2C#N)cnc1N)c1cc(F)ccc1-n1nccn1 [Example 141, 4-(6-amino-5-{(1R)-1-[5-fluoro-2-(2H-1,2,3-triazol-2-yl)phenyl]ethoxy}pyridin-3-yl)-1-[(3-exo)-8-azabicyclo[3.2.1]oct-3-yl]-1H-pyrazole-5-carbonitrile] | < 0.2 | 3.5
14 | Cc1c(-c2cnc(N)c(O[C@H](C)c3cc(F)ccc3-n3nccn3)c2)cnn1C1CCNCC1 [Example 125, 3-{(1R)-1-[5-fluoro-2-(2H-1,2,3-triazol-2-yl)phenyl]ethoxy}-5-[5-methyl-1-(piperidin-4-yl)-1H-pyrazol-4-yl]pyridin-2-amine] | < 0.2 | 3.7
15 | Cc1nc(CO)sc1-c1cnc(N)c(O[C@H](C)c2cc(F)ccc2-n2nccn2)c1 [Example 107, [5-(6-amino-5-{(1R)-1-[5-fluoro-2-(2H-1,2,3-triazol-2-yl)phenyl]ethoxy}pyridin-3-yl)-4-methyl-1,3-thiazol-2-yl]methanol] | < 0.2 | 9.92
16 | COc1ccc(F)cc1C(C)Oc1cc(-c2ccc(C(C)N)nc2)cnc1N (stereo not drawn) [Example 138, 6′-(1-aminoethyl)-5-[1-(5-fluoro-2-methoxyphenyl)ethoxy]-3,3′-bipyridin-6-amine] | 0.32 | 8.33
17 | C[C@@H](Oc1nc(-c2ccnc(N3CCN(C)CC3)c2)cnc1N)c1cc(F)ccc1-n1nccn1 [Example 70, 3-{(1R)-1-[5-fluoro-2-(2H-1,2,3-triazol-2-yl)phenyl]ethoxy}-5-[2-(4-methylpiperazin-1-yl)pyridin-4-yl]pyrazin-2-amine] | < 0.2 | 5.48
18 | Cc1nn(CS(C)(=O)=O)c(C)c1-c1cnc(N)c(O[C@H](C)c2cc(F)ccc2-n2nccn2)c1 [Example 95, 5-{3,5-dimethyl-1-[(methylsulfonyl)methyl]-1H-pyrazol-4-yl}-3-{(1R)-1-[5-fluoro-2-(2H-1,2,3-triazol-2-yl)phenyl]ethoxy}pyridin-2-amine] | 0.2 | 13.8
19 | Cc1nc(C#N)c(-c2cnc(N)c(O[C@H](C)c3cc(F)ccc3-n3nccn3)c2)o1 [Example 120, 5-(6-amino-5-{(1R)-1-[5-fluoro-2-(2H-1,2,3-triazol-2-yl)phenyl]ethoxy}pyridin-3-yl)-2-methyl-1,3-oxazole-4-carbonitrile] | 2.14 | 161

Second part, the molecule after the results:

Row | Ki [1] [nM] | IC50 [2] [nM] | Structure (SMILES)
20 | < 0.2 | 12.2 | CNCc1ccc(-c2cnc(N)c(O[C@H](C)c3cc(F)ccc3-n3nccn3)c2)c(OC)n1 [Example 100, 5-{(1R)-1-[5-fluoro-2-(2H-1,2,3-triazol-2-yl)phenyl]ethoxy}-2′-methoxy-6′-[(methylamino)methyl]-3,3′-bipyridin-6-amine]
21 | < 0.2 | 2.61 | C[C@@H](N)c1ccc(-c2cnc(N)c(O[C@H](C)c3cc(F)ccc3-n3nccn3)c2)cc1 [Example 88, 5-{4-[(1R)-1-aminoethyl]phenyl}-3-{(1R)-1-[5-fluoro-2-(2H-1,2,3-triazol-2-yl)phenyl]ethoxy}-pyridin-2-amine]
22 | 0.203 | 38.1 | C[C@@H](Oc1cc(-c2cccc(P(C)(C)=O)c2)cnc1N)c1cc(F)ccc1-n1nccn1 [Example 112, 5-[3-(dimethylphosphoryl)phenyl]-3-{(1R)-1-[5-fluoro-2-(2H-1,2,3-triazol-2-yl)phenyl]ethoxy}pyridin-2-amine]
23 | < 0.2 | 3.21 | COc1ccc(S(C)(=O)=O)cc1-c1cnc(N)c(O[C@H](C)c2cc(F)ccc2-n2nccn2)c1 [Example 101, 3-{(1R)-1-[5-fluoro-2-(2H-1,2,3-triazol-2-yl)phenyl]ethoxy}-5-[2-methoxy-5-(methylsulfonyl)phenyl] pyridin-2-amine]
24 | 0.37 | 6.81 | C[C@@H](Oc1cc(-c2cccc3c2CNC3=O)cnc1N)c1cc(F)ccc1-n1nccn1 [Example 85, 4-(6-Amino-5-((R)-1-(5-fluoro-2-(2H-1,2,3-triazol-2-yl)phenyl)ethoxy)pyridin-3-yl)isoindolin-1-one]
25 | < 0.2 | 4.14 | C[C@@H](Oc1cc(-c2cccc(CS(C)(=O)=O)c2)cnc1N)c1cc(F)ccc1-n1nccn1 [Example 87, 3-{(1R)-1-[5-fluoro-2-(2H-1,2,3-triazol-2-yl)phenyl]ethoxy}-5-{3-[(methylsulfonyl)methyl]phenyl}pyridin-2-amine]
26 | 0.43 | 12.7 | COc1nc(CO)ccc1-c1cnc(N)c(O[C@H](C)c2cc(F)ccc2-n2nccn2)c1 [Example 93, (6′-amino-5′-{(1R)-1-[5-fluoro-2-(2H-1,2,3-triazol-2-yl)phenyl]ethoxy}-2-methoxy-3,3′-bipyridin-6-yl)methanol]
27 | 1.04 | 71.3 | C[C@@H](Oc1cc(-c2ccc(O)nc2)cnc1N)c1cc(F)ccc1-n1nccn1 [Example 121, 6′-amino-5′-{(1R)-1-[5-fluoro-2-(2H-1,2,3-triazol-2-yl)phenyl]ethoxy}-3,3′-bipyridin-6-ol]
28 | 0.77 | 10.3 | Cc1ccc(-c2cnc(N)c(O[C@H](C)c3cc(F)ccc3-n3nccn3)c2)cn1 [Example 117, 5-{(1R)-1-[5-fluoro-2-(2H-1,2,3-triazol-2-yl)phenyl]ethoxy}-6′-methyl-3,3′-bipyridin-6-amine]
29 | 1.3 | 89.6 | Cc1cc(-c2cnc(N)c(O[C@H](C)c3cc(F)ccc3-n3nccn3)c2)cc(P(C)(C)=O)c1 [Example 114, 5-[3-(dimethylphosphoryl)-5-methylphenyl]-3-{(1R)-1-[5-fluoro-2-(2H-1,2,3-triazol-2-yl)phenyl]ethoxy}pyridin-2-amine]
30 | 0.26 | 9.29 | COc1cc(C(N)=O)ccc1-c1cnc(N)c(O[C@H](C)c2cc(F)ccc2-n2nccn2)c1 [Example 118, 4-(6-amino-5-{(1R)-1-[5-fluoro-2-(2H-1,2,3-triazol-2-yl)phenyl]ethoxy}pyridin-3-yl)-3-methoxybenzamide]
